We go through nine compounds from PubChem BioAssay (NCI).

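Values below derive from 48-hour exposures of cells grown in 96-well plates, with endpoints linearly interpolated between the two concentrations bracketing the appropriate inhibition level. At the GI50, growth is halved. TGI denotes the concentration required for complete inhibition of growth.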

Test systems include COLO 205 colon; HCC-2998 colon; HCT-15 colon; HL-60(TB) leukemia; IGROV1 ovarian; SF-268 CNS; SK-MEL-28 melanoma; SN12C renal; U251 CNS; KM12 colon.
Holding throughout (experiment): NCI anticancer screen, dose series, 48 h

Turning to `CCOC(=O)c1sc(Nc2ccc(Cl)cc2)nc1C`, the GI50 in the test with COLO 205 colon was 1.83 µM; in the test with HCC-2998 colon it was 1.75 µM; with HCT-15 colon, 1.62 µM; in the test with HL-60(TB) leukemia, 3.16 µM; in the test with IGROV1 ovarian, 1.52 µM; with SF-268 CNS, 1.72 µM. Further, the results for the GI50 with SK-MEL-28 melanoma, in the test on SN12C renal and in the test on U251 CNS were 1.96 µM, 1.75 µM and 1.96 µM, respectively. For the same compound, the TGI in the test with COLO 205 colon is 3.59 µM; in the test on HCC-2998 colon it was 3.34 µM; in the test with HCT-15 colon, 3.92 µM; with HL-60(TB) leukemia, 7.17 µM; with IGROV1 ovarian it was 4.26 µM; in the test with SF-268 CNS, 3.7 µM. In addition, the figures for the TGI in the test with SK-MEL-28 melanoma, in the test on SN12C renal and with U251 CNS were 4.23 µM, 4.81 µM and 4.3 µM, respectively.
For the compound `COC(=O)C1=C(CO)C2C=CC1C2` (stereo not given), the TGI with COLO 205 colon, with HCC-2998 colon, with HCT-15 colon, in the test on HL-60(TB) leukemia, in the test with IGROV1 ovarian and in the test on KM12 colon was > 100 µM in each case. The TGI with SF-268 CNS, with SN12C renal and with U251 CNS was > 100 µM each time.
In the case of `Cc1ccc(Cl)c(NC(=O)C(=O)C(C(=O)c2ccncc2)C2OC(=O)c3ccccc32)c1` (stereo not given), the TGI in the test on COLO 205 colon, in the test on HCC-2998 colon, in the test on HCT-15 colon, with HL-60(TB) leukemia, in the test on IGROV1 ovarian and in the test on SF-268 CNS was > 100 µM in each case. In addition, the TGI in the test with SK-MEL-28 melanoma, with SN12C renal and in the test with U251 CNS was > 100 µM each time.
In the case of `O=C1C(=O)C(Br)(Br)C(Br)=C1Br`, the TGI with COLO 205 colon was 32.9 µM; in the test on HCC-2998 colon it was 62 µM; in the test on HCT-15 colon it was 41.9 µM; with HL-60(TB) leukemia, 38.2 µM; in the test with IGROV1 ovarian, > 100 µM; in the test with KM12 colon it was 28.6 µM. In addition, the TGI is 29.7 µM in the test with SK-MEL-28 melanoma, 51.8 µM in the test on SN12C renal and 79.8 µM in the test on U251 CNS.
In the case of `CCN(CC)C(=O)COc1ccc(Br)cc1Br`, the TGI in the test with COLO 205 colon, in the test on HCC-2998 colon, in the test with HCT-15 colon, with HL-60(TB) leukemia, with KM12 colon and in the test with SF-268 CNS was > 100 µM each time. The TGI in the test on SK-MEL-28 melanoma, with SN12C renal and with U251 CNS was > 100 µM each time.
With `COc1ccc(-c2ccc(C3CC(c4ccc(Cl)cc4)=NN3)o2)c([N+](=O)[O-])c1` (stereo not given), the GI50 in the test with COLO 205 colon, in the test on HCC-2998 colon, in the test with HCT-15 colon, in the test with HL-60(TB) leukemia, in the test on IGROV1 ovarian and with SF-268 CNS was > 100 µM each time. Also, the GI50 with SK-MEL-28 melanoma and in the test on U251 CNS was > 100 µM in each case. Besides, the TGI in the test on COLO 205 colon, with HCC-2998 colon, in the test with HCT-15 colon, in the test on HL-60(TB) leukemia, in the test with IGROV1 ovarian and in the test with SF-268 CNS was > 100 µM in each case. Further, the TGI with SK-MEL-28 melanoma and in the test with U251 CNS was > 100 µM in each case.
Regarding `CC(C)(C)C(=O)C1CC(=O)c2ccccc2C1=O` (stereo not given), the TGI with COLO 205 colon is > 100 µM; in the test on HCC-2998 colon, > 100 µM; in the test with HL-60(TB) leukemia it was 43.6 µM; in the test with IGROV1 ovarian, > 100 µM; with KM12 colon it was > 100 µM; with SF-268 CNS, 69.7 µM. For the same compound, the figures for the TGI in the test on SK-MEL-28 melanoma, in the test with SN12C renal and with U251 CNS were 72.8 µM, > 100 µM and 99.7 µM, respectively.
On to `COc1cc2nc(Nc3cccc(F)c3)nc(Nc3cc(C)[nH]n3)c2cc1OC`, for which the GI50 in the test on COLO 205 colon was 2.25 µM; in the test with HCC-2998 colon it was 1.8 µM; in the test with HCT-15 colon, 1.22 µM; in the test with HL-60(TB) leukemia, 1.93 µM; with KM12 colon, 1.64 µM; in the test with SF-268 CNS it was 1.82 µM. Also, the GI50 in the test on SK-MEL-28 melanoma was 1.77 µM; in the test with SN12C renal, 1.89 µM; in the test on U251 CNS, 1.82 µM. The TGI in the test on COLO 205 colon amounted to 4.99 µM; in the test on HCC-2998 colon it was 3.28 µM; in the test on HCT-15 colon, 2.72 µM; with HL-60(TB) leukemia it was 4.46 µM; with KM12 colon, 3.32 µM; in the test with SF-268 CNS, 3.46 µM. Further, the figures for the TGI in the test on SK-MEL-28 melanoma, with SN12C renal and in the test on U251 CNS were 3.2 µM, 3.79 µM and 3.73 µM, respectively.
For the compound `CCCc1nc2c(C)cc(-c3nc4ccccc4n3C)cc2n1Cc1ccc(-c2ccccc2C(=O)O)cc1`, the GI50 is 42.4 µM in the test with COLO 205 colon; 51.9 µM in the test on HCC-2998 colon; 20.3 µM in the test on HCT-15 colon; 28.8 µM with HL-60(TB) leukemia; 43.5 µM in the test with IGROV1 ovarian; 44.1 µM in the test on SF-268 CNS. Further, the results for the GI50 with SK-MEL-28 melanoma, in the test on SN12C renal and in the test on U251 CNS were 25.7 µM, 33.3 µM and 20.2 µM, respectively. In addition, the TGI with COLO 205 colon is > 100 µM; with HCC-2998 colon it was > 100 µM; in the test with HCT-15 colon it was > 100 µM; in the test with HL-60(TB) leukemia it was 77.4 µM; with IGROV1 ovarian, > 100 µM; in the test on SF-268 CNS, > 100 µM. In addition, the TGI in the test on SK-MEL-28 melanoma is > 100 µM; in the test with SN12C renal it was > 100 µM; in the test on U251 CNS it was 51.8 µM.
